From ChEMBL document CHEMBL1121748, “Antimycotic imidazoles. 5. Synthesis and antimycotic properties of 1-[[2-aryl-4-(arylalkyl)-1,3-dioxolan-2-yl]methyl]-1H-imidazoles” (1981)

Assays:
Trichophyton benhamiae = test: Antifungal activity against Trichophyton mentagrophytes; type: functional, trychophyton mentagrophytes
Trichophyton rubrum = test: Antifungal activity against Trichophyton rubrum; type: functional
Candida tropicalis = test: Antifungal activity against Candida tropicalis; type: functional
[1] = tested on: Erysipelothrix rhusiopathiae; test: Antibacterial activity against Erysipelothrix insidiosa; type: functional
Saprolegnia = test: Antifungal activity against Saprolegnia species; type: functional
Aspergillus fumigatus = test: Antifungal activity against Aspergillus fumigatus; type: functional
Mucor = test: Antifungal activity against Mucor species; type: functional
[2] = tested on: Staphylococcus haemolyticus; test: Antibacterial against Staphylococcus hemolyticus; type: functional
Candida albicans = test: Antifungal activity against Candida albicans; type: functional
Streptococcus pyogenes = test: Antibacterial activity against Streptococcus pyogenes; type: functional
Cryptococcus neoformans = test: Antifungal activity against Cryptococcus neoformans; type: functional
Microsporum canis = test: Antifungal activity against Microsporum canis; type: functional
Sporothrix schenckii = test: Antifungal activity against Sporothrix schenck ii; type: functional
Phialophora verrucosa = test: Antifungal activity against Phialophora verrucosa; type: functional
[3] = Ratio of animals cured to that of animals infected, tested in vivo for antifungal activity against cutaneous candidosis in guinea pig; 0/2; type: functional; also: test concentration or dose not given here
[4] = Ratio of animals cured to that of animals infected, tested in vivo for antifungal activity against vaginal candidosis in rat; 0/2; also: test concentration or dose not given here

| Compound | Inhibition (Trichophyton benhamiae) | Inhibition (Trichophyton rubrum) | Inhibition (Candida tropicalis) | Inhibition [1] | Inhibition (Saprolegnia) | Inhibition (Aspergillus fumigatus) | Inhibition (Mucor) | Inhibition [2] | Inhibition (Candida albicans) | Inhibition (Streptococcus pyogenes) | Inhibition (Cryptococcus neoformans) | Inhibition (Microsporum canis) | Inhibition (Sporothrix schenckii) | Inhibition (Phialophora verrucosa) | Ratio [3] | Ratio [4] |
| --- | --- | --- | --- | --- | --- | --- | --- | --- | --- | --- | --- | --- | --- | --- | --- | --- |
| Clc1ccc(C2(Cn3ccnc3)OCC(c3ccccc3Cl)O2)c(Cl)c1 (centres undefined) | <1 µg/mL | <1 µg/mL | 100 µg/mL | <1 µg/mL | 100 µg/mL | 100 µg/mL | 100 µg/mL | 1 µg/mL | 100 µg/mL | <1 µg/mL | <1 µg/mL | 10 µg/mL | 10 µg/mL | 100 µg/mL |  |  |
| Cc1ccc(C2(Cn3ccnc3)OCC(c3ccc(Cl)cc3)O2)cc1 (centres undefined) | <1 µg/mL | <1 µg/mL | 100 µg/mL | <1 µg/mL | 100 µg/mL | <1 µg/mL | 10 µg/mL | 10 µg/mL | >100 µg/mL | <1 µg/mL | <1 µg/mL | <1 µg/mL | 10 µg/mL | 100 µg/mL | 0 |  |
| Cc1ccc(C2(Cn3ccnc3)OCC(c3ccc(Cl)cc3Cl)O2)cc1 (centres undefined) | <1 µg/mL | <1 µg/mL | >100 µg/mL | <1 µg/mL | 100 µg/mL | 100 µg/mL | 100 µg/mL | 1 µg/mL | >100 µg/mL | <1 µg/mL | 10 µg/mL | 10 µg/mL | 10 µg/mL | 100 µg/mL | 0 |  |
| Clc1cccc(C2(Cn3ccnc3)OCC(c3ccc(Cl)cc3Cl)O2)c1 (centres undefined) | 10 µg/mL | <1 µg/mL | 100 µg/mL | 10 µg/mL | 100 µg/mL | 100 µg/mL | 100 µg/mL | 100 µg/mL | 100 µg/mL | <1 µg/mL | 100 µg/mL | 100 µg/mL | 10 µg/mL | >100 µg/mL | 0 | 0 |
| Clc1ccc(C2COC(Cn3ccnc3)(c3ccc(Br)cc3)O2)cc1 (centres undefined) | <1 µg/mL | <1 µg/mL | 100 µg/mL | 1 µg/mL | 100 µg/mL | 10 µg/mL | >100 µg/mL | 100 µg/mL | >100 µg/mL | 1 µg/mL | 100 µg/mL | <1 µg/mL | 10 µg/mL | 100 µg/mL | 0 | 0 |
| Clc1ccc(C2COC(Cn3ccnc3)(c3ccccc3Cl)O2)c(Cl)c1 (centres undefined) | <1 µg/mL | <1 µg/mL | >100 µg/mL | 1 µg/mL | 10 µg/mL | <1 µg/mL | >100 µg/mL | 10 µg/mL | >100 µg/mL | <1 µg/mL | <1 µg/mL | <1 µg/mL | <1 µg/mL | 100 µg/mL |  | 0 |
| Clc1ccc(C2COC(Cn3ccnc3)(c3ccccc3Cl)O2)cc1 (centres undefined) | <1 µg/mL | <1 µg/mL | 100 µg/mL | <1 µg/mL | 10 µg/mL | <1 µg/mL | 100 µg/mL | 100 µg/mL | 100 µg/mL | <1 µg/mL | 100 µg/mL | <1 µg/mL | 10 µg/mL | 100 µg/mL |  |  |
| COc1ccc(C2(Cn3ccnc3)OCC(c3ccc(Cl)cc3)O2)cc1 (centres undefined) | <1 µg/mL | 10 µg/mL | >100 µg/mL | 10 µg/mL | 100 µg/mL | <1 µg/mL | 100 µg/mL | 100 µg/mL | >100 µg/mL | 10 µg/mL | >100 µg/mL | <1 µg/mL | 10 µg/mL | 100 µg/mL | 0 |  |
| Clc1ccc(C2(Cn3ccnc3)OCC(c3ccccc3)O2)cc1 (centres undefined) | <1 µg/mL | <1 µg/mL | >100 µg/mL | 1 µg/mL | 100 µg/mL | 10 µg/mL | 100 µg/mL | 10 µg/mL | 100 µg/mL | <1 µg/mL | 10 µg/mL | 10 µg/mL | 10 µg/mL | 100 µg/mL |  |  |
| Cc1ccc(C2(Cn3ccnc3)OCC(c3ccc(Br)cc3)O2)cc1 (centres undefined) | <1 µg/mL | <1 µg/mL | >100 µg/mL | <1 µg/mL | 10 µg/mL | <1 µg/mL | >100 µg/mL | 10 µg/mL | >100 µg/mL | <1 µg/mL | >100 µg/mL | <1 µg/mL | >100 µg/mL | >100 µg/mL | 0 | 0 |
| Clc1ccccc1C1(Cn2ccnc2)OCC(c2ccc(Br)cc2)O1 (centres undefined) | <1 µg/mL | <1 µg/mL | 10 µg/mL | 10 µg/mL | 10 µg/mL | <1 µg/mL | 10 µg/mL | 10 µg/mL | 100 µg/mL | 10 µg/mL | <1 µg/mL | <1 µg/mL | 10 µg/mL | 10 µg/mL |  |  |
| Brc1ccc(C2COC(Cn3ccnc3)(c3ccccc3)O2)cc1 (centres undefined) | <1 µg/mL | <1 µg/mL | >100 µg/mL | 1 µg/mL | 100 µg/mL | 10 µg/mL | 100 µg/mL | >100 µg/mL | 100 µg/mL | <1 µg/mL | 10 µg/mL | <1 µg/mL | 10 µg/mL | 100 µg/mL |  |  |
| Brc1ccc(C2(Cn3ccnc3)OCC(c3ccccc3)O2)cc1 (centres undefined) | <1 µg/mL | <1 µg/mL | >100 µg/mL | 10 µg/mL | 100 µg/mL | 100 µg/mL | 100 µg/mL | 100 µg/mL | 100 µg/mL | <1 µg/mL | 10 µg/mL | <1 µg/mL | 100 µg/mL | 100 µg/mL | 0 | 0 |
| Clc1ccc(C2COC(Cn3ccnc3)(c3ccc(Br)cc3)O2)c(Cl)c1 (centres undefined) | 10 µg/mL | <1 µg/mL | >100 µg/mL | 1 µg/mL | >100 µg/mL | >100 µg/mL | 100 µg/mL | 100 µg/mL | >100 µg/mL | 1 µg/mL | >100 µg/mL | 10 µg/mL | 100 µg/mL | >100 µg/mL | 0 |  |
| Clc1ccc(C2(Cn3ccnc3)OCC(c3ccc(Cl)cc3Cl)O2)cc1 (centres undefined) | <1 µg/mL | <1 µg/mL | >100 µg/mL | 1 µg/mL | 100 µg/mL | 100 µg/mL | 100 µg/mL | 10 µg/mL | 100 µg/mL | <1 µg/mL | 10 µg/mL | 10 µg/mL | 10 µg/mL | 100 µg/mL |  | 0 |
| Clc1ccc(C2(Cn3ccnc3)OCC(Cc3ccc(Br)cc3)O2)c(Cl)c1 (centres undefined) | <1 µg/mL | <1 µg/mL | >100 µg/mL | <1 µg/mL | 100 µg/mL | 10 µg/mL | <1 µg/mL | 10 µg/mL | 10 µg/mL | <1 µg/mL | <1 µg/mL | <1 µg/mL | 10 µg/mL | 100 µg/mL |  | 0 |
